# From patent US9353072B2, “Antimicrobial substituted thiazoles and methods of use” (Purdue Research Foundation, priority 2012, dated 2016)
# Read-outs that look alike come from different tables or passages of the source.
# Columns and labels:
# NRS194 = test: MIC/MBC broth microdilution, NRS194; format: cell-based; conditions: Staphylococcus aureus; for MIC: Table 8, read-out: MIC; for MBC: Table 8, read-out: MBC
# Protocol: (§1) Determination of minimum inhibitory concentration (MIC). The MICs of the lead thiazole compound (compound 1a) and nine derivatives tested against all 18 MRSA strains were determined, in triplicate samples, using the broth microdilution method in accordance with the recommendations contained in the CLSI guidelines.
# [1] = system: MRSA ATCC 700699 (NRS1, VISA); test: MIC/MBC broth microdilution, NRS1 (ATCC 700699); format: cell-based; conditions: Staphylococcus aureus
# Protocol: as §1
# MRSA NRS384 (USA300) = test: MIC/MBC broth microdilution, NRS384 (USA300); format: cell-based; conditions: Staphylococcus aureus; for MBC: read-out: MBC
# Protocol: as §1
# MRSA USA400 (NRS123) = test: MIC/MBC broth microdilution, NRS123 (USA400); format: cell-based; conditions: Staphylococcus aureus, Table 8, NRS123; for MIC: read-out: MIC; for MBC: read-out: MBC
# Protocol: as §1
# NRS107 = test: MIC/MBC broth microdilution, NRS107; format: cell-based; conditions: Staphylococcus aureus; for MIC: Table 8, read-out: MIC; for MBC: Table 8, read-out: MBC
# Protocol: as §1
# VISA HIP07256 (NRS19) = test: MIC/MBC broth microdilution, NRS19 (VISA HIP07256); format: cell-based; conditions: Staphylococcus aureus, Table 8, NRS19 (VISA); for MIC: read-out: MIC; for MBC: read-out: MBC
# Protocol: as §1
# MRSA USA500 (NRS385) = test: MIC/MBC broth microdilution, NRS385 (USA500); format: cell-based; conditions: Staphylococcus aureus, Table 8, NRS385; for MIC: read-out: MIC; for MBC: read-out: MBC
# Protocol: as §1
# MRSA ATCC 43300 = test: MIC/MBC broth microdilution, MRSA ATCC 43300; format: cell-based, Staphylococcus aureus; conditions: Staphylococcus aureus
# Protocol: as §1
# VISA LIM 3 (NRS37) = test: MIC/MBC broth microdilution, NRS37 (VISA LIM 3); format: cell-based; conditions: Staphylococcus aureus, Table 8, NRS37 (VISA); for MIC: read-out: MIC; for MBC: read-out: MBC
# Protocol: as §1
# NRS119 = test: MIC/MBC broth microdilution, NRS119; format: cell-based; conditions: Staphylococcus aureus
# Protocol: as §1
# VRSA (VRS10) = test: MIC/MBC broth microdilution, VRSA (VRS10); format: cell-based, Staphylococcus aureus; conditions: Staphylococcus aureus; for MBC: read-out: Minimum Bactericidal Concentration; for MIC: read-out: Minimum Inhibitory Concentration
# Protocol: as §1
# [2] = Table 8, NRS1 (VISA), triplicates, 20 hours, read-out: MIC
# [3] = Table 6, MRSA ATCC 43300, 128 μM down to 1.0 μM, 20 hours, read-out: MIC
# [4] = Table 8, ATCC 43300, read-out: MIC
# [5] = Table 7, VISA (NRS1), read-out: Minimum Bactericidal Concentration
# [6] = Table 7, VISA (NRS1), read-out: Minimum Inhibitory Concentration
# [7] = Table 8, NRS1 (VISA), read-out: MBC
# [8] = Table 6, MRSA ATCC 43300, plating on TSA, 20 hour incubation, read-out: MBC
# [9] = Table 7, MRSA (ATCC 43300), read-out: Minimum Bactericidal Concentration
# [10] = Table 7, MRSA (ATCC 43300), read-out: Minimum Inhibitory Concentration
# [11] = Table 8, ATCC 43300, read-out: MBC
# [12] = NRS 119 / VISA, Table 7, VISA (NRS119), read-out: Minimum Bactericidal Concentration
# [13] = NRS 119 / VISA, Table 7, VISA (NRS119), read-out: Minimum Inhibitory Concentration
# [14] = read-out: Minimum Bactericidal Concentration
# [15] = read-out: Minimum Inhibitory Concentration
MIC (NRS194),"MIC [1, 2]","MIC (MRSA NRS384 (USA300); Table 8, NRS384, read-out: MIC)",MIC (MRSA USA400 (NRS123)),MIC (NRS107),MIC (VISA HIP07256 (NRS19)),MIC (MRSA USA500 (NRS385)),MIC (MRSA ATCC 43300; [3]),MIC (MRSA ATCC 43300; [4]),MIC (VISA LIM 3 (NRS37)),"MIC (NRS119; Table 8, NRS119, read-out: MIC)",Structure (SMILES),MBC (NRS194),"MBC [1, 7]","MBC (MRSA NRS384 (USA300); Table 8, NRS384)",MBC (MRSA USA400 (NRS123)),MBC (NRS107),MBC (VISA HIP07256 (NRS19)),MBC (MRSA USA500 (NRS385)),MBC (MRSA ATCC 43300; [11]),MBC (VISA LIM 3 (NRS37)),also measured
> 128 µM,> 128 µM,> 128 µM,> 128 µM,> 128 µM,> 128 µM,> 128 µM,> 128 µM,> 128 µM,> 128 µM,> 128 µM,"CC(=O)c1sc(-c2ccc(-c3ccc(C(F)(F)F)cc3)cc2)nc1C [Compound M10, 1-(4-methyl-2-(4′-(trifluoromethyl)-[1,1′-biphenyl]-4-yl)thiazol-5-yl)ethanone]",–,–,–,–,–,–,–,–,–,–
16 µM,16 µM,16 µM,16 µM,16 µM,32 µM,16 µM,4 µM,16 µM,8 µM,16 µM,"CC(=O)c1ccc(-c2ccc(-c3nc(C)c(/C(C)=N\NC(=N)N)s3)cc2)cc1 [Compound M11, (Z)-2-(1-(2-(4′-acetyl-[1,1′-biphenyl]-4-yl)-4-methylthiazol-5-yl)ethylidene)hydrazinecarboximidamide]",16 µM,16 µM,16 µM,16 µM,32 µM,32 µM,16 µM,16 µM,16 µM,"MBC [1, 5]: 32 µM; MIC [1, 6]: 8 µM; MBC (MRSA ATCC 43300; [8]): 8 µM; MBC (MRSA ATCC 43300; [9]): 8 µM; MIC (MRSA ATCC 43300; [10]): 8 µM; MBC (NRS119; [12]): 32 µM; MIC (NRS119; [13]): 16 µM; MBC (NRS119; Table 8, NRS119, read-out: MBC): 32 µM; MBC (VRSA (VRS10); Table 7, VRSA (VRS10)): 16 µM; MIC (VRSA (VRS10); Table 7, VRSA (VRS10)): 16 µM"
16 µM,8 µM,16 µM,16 µM,8 µM,16 µM,16 µM,4 µM,16 µM,8 µM,16 µM,"C/C(=N/NC(=N)N)c1sc(-c2ccc(-c3ccc(F)cc3)cc2)nc1C [Compound M12, (Z)-2-(1-(2-(4′-fluoro-[1,1′-biphenyl]-4-yl)-4-methylthiazol-5-yl)ethylidene)hydrazinecarboximidamide]",32 µM,8 µM,16 µM,32 µM,16 µM,16 µM,16 µM,16 µM,16 µM,"MBC [1, 5]: 8 µM; MIC [1, 6]: 4 µM; MBC (MRSA ATCC 43300; [8]): > 16 µM; MBC (MRSA ATCC 43300; [9]): 16 µM; MIC (MRSA ATCC 43300; [10]): 4 µM; MBC (NRS119; [12]): 16 µM; MIC (NRS119; [13]): 16 µM; MBC (NRS119; Table 8, NRS119, read-out: MBC): 32 µM; MBC (VRSA (VRS10); Table 7, VRSA (VRS10)): 64 µM; MIC (VRSA (VRS10); Table 7, VRSA (VRS10)): 8 µM"
–,–,–,–,–,–,–,–,–,–,–,"CCCCCCCC#Cc1ccc(-c2nc(C)c(/C(C)=N/NC(=N)N)s2)cc1 [Compound M17, (E)-2-(1-(4-methyl-2-(4-(non-1-yn-1-yl)phenyl)thiazol-5-yl)ethylidene) hydrazinecarboximidamide]",–,–,–,–,–,–,–,–,–,"MBC [1, 14]: 32 µM; MIC [1, 15]: 16 µM; MIC (MRSA ATCC 43300; 20 h): 32 µM; MBC (MRSA ATCC 43300; [14]): 64 µM; MIC (MRSA ATCC 43300; [15]): 32 µM; MBC (NRS119; NRS 119 / VISA, read-out: Minimum Bactericidal Concentration): 64 µM; MIC (NRS119; NRS 119 / VISA, read-out: Minimum Inhibitory Concentration): 32 µM; MBC (VRSA (VRS10); VRSA): 64 µM; MIC (VRSA (VRS10); VRSA): 32 µM"
4 µM,2 µM,4 µM,4 µM,4 µM,4 µM,4 µM,–,4 µM,4 µM,4 µM,"CCCCC#Cc1ccc(-c2nc(C)c(/C(C)=N/NC(=N)N)s2)cc1 [Compound R1, (E)-2-(1-(2-(4-(hex-1-yn-1-yl)phenyl)-4-methylthiazol-5-yl)ethylidene)hydrazinecarboximidamide]",4 µM,2 µM,4 µM,4 µM,4 µM,4 µM,4 µM,4 µM,4 µM,"MIC (MRSA ATCC 43300; Table 4, MRSA ATCC 43300, 64 μM down to 0.5 μM, 37° C., 19 hours, read-out: Minimum Inhibitory Concentration): 4 µM; MBC (NRS119; Table 8, NRS119, read-out: MBC): 4 µM"
> 128 µM,> 128 µM,> 128 µM,> 128 µM,> 128 µM,> 128 µM,> 128 µM,–,> 128 µM,> 128 µM,> 128 µM,"CCCCc1ccc(-c2nc(C)c(/C(N)=N\O)s2)cc1 [Compound R7, (E)-2-(4-butylphenyl)-N′-hydroxy-4-methylthiazole-5-carboximidamide]",–,–,–,–,–,–,–,–,–,"MIC (MRSA NRS384 (USA300); Table 5, MRSA NRS384 (USA300), 128 μM down to 1.0 μM, 37° C., 19 hours, read-out: Minimum Inhibitory Concentration): > 128 µM"
